{"source": "patent US20240384350A1", "about": "“METHODS OF TREATING CANCER WITH KINASE INHIBITORS” (BOARD OF REGENTS, THE UNIVERSITY OF TEXAS SYSTEM, priority 2021, published 2024)", "key": {"[1]": {"tested_on": "classical EGFR mutant NSCLC", "details": "Phase III; treatment-naive patients; cited from earlier work"}, "[2]": {"tested_on": "NSCLC tumors expressing EGFR G719S", "assay": "PDX tumor growth, EGFR G719S model", "type": "in vivo, NSG mice", "details": "mice harboring PDXs with mutations", "description": "Dot plot of mutant/WT IC50 values of Ba/F3 cells expressing PACC mutations and treated with indicated classes of EGFR TKIs. […] Bars are representative of average mutant/WT IC50 values±SEM for each class of EGFR TKI and all PACC cell lines. p-values were determined by ANOVA analysis with unequal SD as determined by Brown-Forsythe test to determined differences in SD. Holm-Sidak's multiple comparisons test was used to determine differences between groups. […] Tumors were measured three times per week and symbols are average of tumor volumes±SEM. Mice were randomized into six groups. Mice received drug 5 days per week, and mice were euthanized at day 28 to harvest tumors. […] Heat map with unsupervised hierarchical clustering of log (Mutant/WT) ratios from Ba/F3 cells expressing indicated mutations after 72 hours of indicated drug treatment. Squares are representative of the average of n=3 replicates. […] Bars are representative of average mutant/WT IC50 values±SEM for each class of EGFR TKI and indicated cell lines. p-values were determined by ANOVA analysis with unequal SD as determined by Brown-Forsythe test to determined differences in SD. […]\nDot plot of percent change in tumor volume on day 28 of tumors described in FIG. 3C. […] Statistical differences were determined by ordinary one-way ANOVA with post-hoc Tukey's multiple comparisons test to determined differences between groups. […]"}, "[3]": {"tested_on": "NSCLC harboring atypical EGFR mutations", "details": "Phase II KCSG-LU15-09; treatment-naive patients harboring atypical EGFR mutations; cited from earlier work"}}}
{"smiles": "C=CC(=O)Nc1cc(Nc2nccc(-c3cn(C)c4ccccc34)n2)c(OC)cc1N(C)CCN(C)C", "note": "[Osimertinib]", "values": [{"measurement": "median overall survival (mOS)", "setting": "[1]", "value": 38.6, "unit": "months"}, {"measurement": "median progression free survival (mPFS)", "setting": "[1]", "value": 18.9, "unit": "months"}, {"measurement": "objective response rate (ORR)", "setting": "[1]", "value": 80, "unit": "%"}, {"measurement": "tumor sensitivity in vivo", "setting": "[2]", "value": "resistant"}, {"measurement": "ORR", "setting": "[3]", "value": 50, "unit": "%"}, {"measurement": "mPFS", "setting": "[3]", "value": 8.2, "unit": "months"}]}
